The values that follow come from PMC4290489, “Identification of multiple salicylic acid-binding proteins using two high throughput screens” (Frontiers in Plant Science, 2015).

Common to all, as to type: binding
The target of assay [1] is T1, UGE2 (Arabidopsis thaliana, UniProt Q9T0A7).
T1 construct: N-terminal His6 (pET28a), from E. coli
T1 sequence (Q9T0A7 1-350): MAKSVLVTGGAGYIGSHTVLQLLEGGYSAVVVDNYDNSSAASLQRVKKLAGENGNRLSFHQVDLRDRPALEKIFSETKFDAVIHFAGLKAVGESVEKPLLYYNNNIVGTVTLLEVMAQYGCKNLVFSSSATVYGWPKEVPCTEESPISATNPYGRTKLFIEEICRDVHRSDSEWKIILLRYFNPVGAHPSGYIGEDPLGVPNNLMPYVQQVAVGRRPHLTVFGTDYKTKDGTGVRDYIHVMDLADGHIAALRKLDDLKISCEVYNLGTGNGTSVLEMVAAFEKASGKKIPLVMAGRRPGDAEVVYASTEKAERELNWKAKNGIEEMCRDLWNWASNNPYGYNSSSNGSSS
The experiment in a line: UV photo-crosslinking, anti-SA immunoblot. The note with it: 50 uM 4AzSA, PBS, on ice, 254 nm UV; covalent; competed by SA. (Immunoblotting shows a protein as a band on a membrane.)

In assay [2] the target is T2, LOX2 (Arabidopsis thaliana, UniProt P38418).
T2 construct: N-terminal His6 (pET28a), from E. coli
T2 sequence (P38418 57-896): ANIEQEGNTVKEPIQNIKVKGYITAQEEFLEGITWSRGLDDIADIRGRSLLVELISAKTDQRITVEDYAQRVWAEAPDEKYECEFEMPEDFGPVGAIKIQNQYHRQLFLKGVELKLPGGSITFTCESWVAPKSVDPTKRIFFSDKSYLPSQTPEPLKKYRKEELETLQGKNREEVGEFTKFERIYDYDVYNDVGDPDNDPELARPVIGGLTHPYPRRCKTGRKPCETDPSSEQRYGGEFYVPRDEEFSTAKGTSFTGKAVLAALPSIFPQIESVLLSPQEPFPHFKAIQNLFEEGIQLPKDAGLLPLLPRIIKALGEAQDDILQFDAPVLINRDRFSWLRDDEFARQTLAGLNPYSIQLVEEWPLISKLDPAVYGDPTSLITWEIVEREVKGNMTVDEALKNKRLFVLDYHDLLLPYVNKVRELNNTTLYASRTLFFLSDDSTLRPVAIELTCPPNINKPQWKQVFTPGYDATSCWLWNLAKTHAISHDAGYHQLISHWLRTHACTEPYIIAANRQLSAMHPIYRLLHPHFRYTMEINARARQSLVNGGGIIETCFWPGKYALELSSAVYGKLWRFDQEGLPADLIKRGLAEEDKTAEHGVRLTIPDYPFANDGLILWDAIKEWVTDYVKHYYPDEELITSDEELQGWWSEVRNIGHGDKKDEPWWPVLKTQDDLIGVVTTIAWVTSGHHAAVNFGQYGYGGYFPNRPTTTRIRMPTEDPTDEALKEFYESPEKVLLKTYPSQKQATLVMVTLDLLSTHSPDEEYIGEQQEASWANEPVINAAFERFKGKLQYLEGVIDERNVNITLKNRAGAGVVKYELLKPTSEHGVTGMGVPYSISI
The experiment in a line: UV photo-crosslinking, anti-SA immunoblot. The note with it: 50 uM 4AzSA, PBS, on ice, 254 nm UV; covalent; competed by SA.

Assay [3] deals with T3, HPR2 (Arabidopsis thaliana, UniProt Q9CA90).
T3 construct: N-terminal His6 (pET28a), from E. coli
T3 sequence (Q9CA90 1-313): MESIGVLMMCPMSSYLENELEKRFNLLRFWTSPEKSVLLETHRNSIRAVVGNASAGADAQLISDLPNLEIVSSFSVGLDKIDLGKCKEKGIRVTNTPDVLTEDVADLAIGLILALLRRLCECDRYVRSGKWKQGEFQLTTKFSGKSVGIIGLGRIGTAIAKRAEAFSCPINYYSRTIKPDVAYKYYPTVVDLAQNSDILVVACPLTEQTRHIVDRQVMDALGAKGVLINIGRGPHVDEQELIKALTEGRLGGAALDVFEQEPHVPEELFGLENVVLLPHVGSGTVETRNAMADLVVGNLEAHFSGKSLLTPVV
The experiment in a line: UV photo-crosslinking, anti-SA immunoblot. The note with it: 50 uM 4AzSA, PBS, on ice, 254 nm UV; covalent; competed by SA.

In assay [4] the target is T4, TRX-m1 (Arabidopsis thaliana, UniProt O48737).
T4 construct: gene At1g03680; N-terminal His6 (pET28a), from E. coli
T4 sequence (O48737 49-179): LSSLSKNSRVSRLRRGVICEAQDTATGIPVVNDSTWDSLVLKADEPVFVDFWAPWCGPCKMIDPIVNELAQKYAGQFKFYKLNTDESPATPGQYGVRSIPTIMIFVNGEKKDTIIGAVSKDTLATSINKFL
As to the kind of experiment: UV photo-crosslinking, anti-SA immunoblot. The note with it: 50 uM 4AzSA, PBS, on ice, 254 nm UV; covalent; competed by SA.

For assay [5], the target named is T4, TRX-m1. As to the kind of experiment: SPR competition on 3AESA chip; competition of 4AzSA photo-crosslinking. To be noted: 1-5 mM SA, HBS-EP pH 7.4 (SPR); competes with 3AESA and 4AzSA.
Assay [6] addresses T1, UGE2. Described as above. The note with it: 1-5 mM SA, HBS-EP pH 7.4 (SPR); competes with 3AESA and 4AzSA.
Assay [7] deals with T5, GSR2 (Arabidopsis thaliana, UniProt Q8LCE1).
T5 construct: gene GLN1-2; N-terminal His6 (pET28a), from E. coli
T5 sequence (Q8LCE1 1-356): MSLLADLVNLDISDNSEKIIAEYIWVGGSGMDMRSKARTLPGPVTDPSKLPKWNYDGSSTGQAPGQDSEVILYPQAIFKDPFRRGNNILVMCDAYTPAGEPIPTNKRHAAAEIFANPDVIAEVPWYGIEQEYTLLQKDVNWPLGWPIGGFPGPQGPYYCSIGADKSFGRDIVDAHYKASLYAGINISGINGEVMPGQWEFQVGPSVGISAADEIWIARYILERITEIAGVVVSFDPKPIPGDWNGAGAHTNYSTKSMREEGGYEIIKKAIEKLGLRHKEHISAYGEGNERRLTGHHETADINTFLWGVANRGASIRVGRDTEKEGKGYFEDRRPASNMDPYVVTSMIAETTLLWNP
Described as above. To be noted: 1-5 mM SA, HBS-EP pH 7.4 (SPR); competes with 3AESA and 4AzSA.

The target in assay [8] is T6, GPX2 (Arabidopsis thaliana, UniProt O04922).
T6 construct: N-terminal His6 (pET28a), from E. coli
T6 sequence (O04922 1-169): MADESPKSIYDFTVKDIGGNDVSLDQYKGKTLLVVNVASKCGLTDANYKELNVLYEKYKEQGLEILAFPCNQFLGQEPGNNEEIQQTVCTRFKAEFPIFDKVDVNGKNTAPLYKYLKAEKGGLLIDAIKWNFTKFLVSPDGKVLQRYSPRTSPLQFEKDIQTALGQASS
The description is as above. To be noted: 1-5 mM SA, HBS-EP pH 7.4 (SPR); competes with 3AESA and 4AzSA.

Assay [9] has as its target T2, LOX2. Described as above. The note with it: 1-5 mM SA, HBS-EP pH 7.4 (SPR); competes with 3AESA and 4AzSA.

On to `[N-]=[N+]=Nc1ccc(C(=O)O)c(O)c1` [4AzSA], for which the “UV photo-crosslinking, anti-SA immunoblot” value in assay [1] was “bound 3AESA and crosslinked to 4AzSA in an SA-inhibitable manner, indicating that they are SABPs”; in [2] it was “These five proteins also bound and crosslinked to 4AzSA”; in [3], “bound 3AESA and crosslinked to 4AzSA in an SA-inhibitable manner, indicating that they are SABPs”; in assay [4] it was “These five proteins also bound and crosslinked to 4AzSA”.

With `O=C(O)c1ccccc1O` [SA], the “SPR competition on 3AESA chip; competition of 4AzSA photo-crosslinking” value in assay [5] is “SA competes with 3AESA and 4AzSA for binding by TRX-m1, TPPII, SHM4, and LOX2”; in [6], “bound 3AESA and crosslinked to 4AzSA in an SA-inhibitable manner, indicating that they are SABPs”; in assay [7], “bound 3AESA and crosslinked to 4AzSA in an SA-inhibitable manner, indicating that they are SABPs”; in assay [8], “bound 3AESA and crosslinked to 4AzSA in an SA-inhibitable manner, indicating that they are SABPs”; in assay [9], “SA competes with 3AESA and 4AzSA for binding by TRX-m1, TPPII, SHM4, and LOX2”.
